The values below come from US8193378B2, “2H-chromene compound and derivative thereof” (Astellas Pharma Inc., priority 2008, dated 2012).

For orientation: EC50 means the concentration that produces a half-maximal response. In general, ED50 refers to the midpoint of the dose-response relation.

One experiment deals with T1, human S1P1 (Homo sapiens, UniProt P21453).
T1 construct: expressed in transfected cells; membrane fraction used
In words: GTP[γ-35S] binding assay using membrane of human S1P1 expressing cell (Test Example 1, Method 1). Type of experiment: biochemical. The conditions noted are these: method 1, GTP[γ-35S] binding, membrane of human S1P1 expressing CHO cell (values without *); read-out: A: EC50, in vitro S1P1 agonist action. As to the method:
Evaluation of In Vitro S1P1 Receptor Agonist Activity in Biological Body
(Method 1) Method for Evaluation on Receptor Agonist Action by GTP[γ-^35S] Binding Assay Using Membrane of Human S1P1 Expressing Cell
The in vitro S1P1 agonist action of the compound of the present invention was evaluated by the increase in the functional binding activity of GTP[γ-^35S] to G-protein using the membrane of a human S1P1 expressing cell. A cDNA encoding a human S1P1 was cloned from a human colorectal cDNA library and introduced to an expression vector pcDNA3.1 to construct a S1P1-pcDNA3.1. Then, by Lipofectamine 2000 (GIBCO), the S1P1-pcDNA3.1 was transfected into a CHO cell, and cultured in a Ham's F-12 culture medium containing 10% fetal bovine serum, 100 U/mL penicillin, 100 μg/mL streptomycin, and 1 mg/mL G418 disulfate, to obtain a stable, G418-resistant strain. The cultured human S1P1 expressing cells were isolated in a 1 mM EDTA.2Na-containing PBS, and disrupted under ice-cooling by a homogenizer made of glass in a 1 mM Tris HCl (pH 7.4) buffer solution containing 0.1 mM EDTA and a protein inhibitor. It was centrifuged at […], and a supernatant was further centrifuged at 4° C. for 60 min at 100,000×g, and suspended in a 10 mM Tris HCl (pH 7.4) buffer solution containing 1 mM EDTA to purify the membrane. The obtained membrane (0.13 mg/mL) and […] GTP[γ-^35S] […] The filter plate was dried at 50° C. for 60 min, and Microscinti-o (Packard) was added thereto for measurement by a liquids scintillation counter for a microplate (Packard, TOP count). For evaluation of the human S1P1 agonist action of the compound of the present invention and the comparative compound, the percentages with the rate of a maximum reaction to make the GTP[γ-^35S] bonds saturated in the presence of the compound being set at 100%, and the rate of the reaction of the GTP[γ-^35S] bonds in the absence of the compound being set at 0% were used, a non-linear regression curve was plotted, and a concentration to cause an agonist action operating 50% of the maximum reaction was defined as an EC50 value (nM).
Background: GTPγS resists hydrolysis and so accumulates on activated G proteins.

Experiment [1] relates to peripheral blood lymphocytes. Kind of experiment: Reduction of number of peripheral blood lymphocytes in rat (Test Example 2). Type of experiment: in vivo. The conditions noted are these: Lymphocyte, male Lewis rats, oral, 4 hours after administration, read-out: B: ED50 4 h, reduction of number of lymphocytes in peripheral blood. As to the method:
Evaluation of Reduction of Number of Peripheral Blood Lymphocytes in Rat
The action on the peripheral blood lymphocytes were evaluated using rats. 6- to 10-week-old male Lewis rats (Japan Charles River Laboratories Japan, Inc.) were randomly divided into groups (n=3), and the compound of the present invention was suspended in 0.5% methyl cellulose-containing distilled water, and orally administered with a sonde. At 4 hours or 24 hours after administration, 0.2 ml of blood was collected from the ocular fundus under ether anesthesia. To the blood sample were immediately added EDTA.4K and heparin to prevent clotting, and the number of the lymphocytes in blood was measured with an automatic hematocyte analyzer (Sysmex Corp.; XT-2000i). For the reduction of the number of the lymphocytes in peripheral blood by the compound of the present invention, the percentage with the number of the lymphocytes in groups administered with 0.5% methyl cellulose-containing distilled water being set at 100%, as performed at the same time, were used, and the dose to cause 50% reduction of the number of the lymphocytes in the peripheral blood by administration of the compound of the present invention was defined as an ED50 value (mg/kg).

T1 sequence (P21453 whole entry): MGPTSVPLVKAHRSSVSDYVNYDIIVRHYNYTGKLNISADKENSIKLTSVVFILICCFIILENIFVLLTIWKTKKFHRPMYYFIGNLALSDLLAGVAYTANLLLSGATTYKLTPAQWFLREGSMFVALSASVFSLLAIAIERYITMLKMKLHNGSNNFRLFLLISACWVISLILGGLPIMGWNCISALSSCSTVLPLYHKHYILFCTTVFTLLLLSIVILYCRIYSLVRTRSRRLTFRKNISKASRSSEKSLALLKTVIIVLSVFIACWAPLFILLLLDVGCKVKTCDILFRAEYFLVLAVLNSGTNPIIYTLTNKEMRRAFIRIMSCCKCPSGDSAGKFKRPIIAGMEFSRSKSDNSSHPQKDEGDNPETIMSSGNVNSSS

For the compound `CS(=O)(=O)NC(=O)C1CCN(CC2=Cc3c(F)cc(OCc4ccc(C(F)(F)F)cc4C(F)(F)F)cc3OC2)C1.Cl` (stereo not shown) [Ex 1, 1-[(7-{[2,4-bis(trifluoromethyl)benzyl]oxy}-5-fluoro-2H-chromen-3-yl)methyl]-N-(methylsulfonyl)pyrrolidine-3-carboxamide hydrochloride], the EC50 at human S1P1 worked out at 1.7 nM. In addition, in experiment [1], the ED50 is 0.016 mg/kg.
On the same counts, the results for `O=C(O)C1CN(CC2=C(Cl)c3ccc(OCc4ccc(C(F)(F)F)cc4C(F)(F)F)cc3OC2)C1` [Ex 25] are 1.7 nM and 0.013 mg/kg.
On the same counts, the results for `CCCc1ccc(COc2ccc3c(c2)OCC(CN2CCC(C(=O)O)C2)=C3)c(OC)c1` (stereo not shown) [Ex 31] are 1.2 nM and 0.065 mg/kg.
For the compound `O=C(O)C1CN(CC2=Cc3c(F)cc(OCc4ccc(C(F)(F)F)cc4C(F)(F)F)cc3OC2)C1` [Ex 34], the EC50 on human S1P1 turned out to be 2 nM. In addition, the ED50 in experiment [1] came out at 0.01 mg/kg.
On the same counts, the results for `O=C(O)C1CN(CC2=Cc3ccc(OCc4cc(-c5ccccc5)c(Br)s4)cc3OC2)C1` [Ex 43] are 6.2 nM and 0.26 mg/kg.
On the same counts, the results for `Cl.O=C(O)C1CCN(CC2=Cc3ccc(OCc4ccc(C(F)(F)F)cc4C(F)(F)F)cc3OC2)C1` (stereo not shown) [Ex 44] are 3.7 nM and 0.37 mg/kg.
On the same counts, the results for `Cl.O=C(O)C1CCN(CC2=Cc3c(F)cc(OCc4ccc(C(F)(F)F)cc4C(F)(F)F)cc3OC2)C1` (stereo not shown) [Ex 45] are 1.5 nM and 0.1 mg/kg.
Turning to `CCc1sc(COc2cc(F)c3c(c2)OCC(CN2CCC(C(=O)O)C2)=C3)cc1-c1ccccc1` (stereo not shown) [Ex 56], the half-maximal effective concentration (EC50) at human S1P1 was found to be 2.3 nM. Further, the ED50 in experiment [1] came to 0.067 mg/kg.
On the same counts, the results for `O=C(O)C1CCN(CC2=Cc3c(F)cc(OCc4ccc(-c5ccccc5)c(C(F)(F)F)c4)cc3OC2)C1` (stereo not shown) [Ex 62] are 2.5 nM and 0.21 mg/kg.
On the same counts, the results for `CC1(C(=O)O)CCN(CC2=Cc3c(F)cc(OCc4cc(-c5ccccc5)c(C(F)(F)F)s4)cc3OC2)C1` (stereo not shown) [Ex 66] are 10 nM and 0.21 mg/kg.
On the same counts, the results for `CC1CN(CC2=Cc3c(F)cc(OCc4cc(-c5ccccc5)c(C(F)(F)F)s4)cc3OC2)CC1C(=O)O` (stereo not shown) [Ex 69] are 6.3 nM and 0.087 mg/kg.
Turning to `O=C(O)C1(F)CCN(CC2=Cc3c(F)cc(OCc4cc(-c5ccccc5)c(C(F)(F)F)s4)cc3OC2)C1` (stereo not shown) [Ex 74], the EC50 on human S1P1 was determined as 5.6 nM. In experiment [1], the ED50 stood at 0.59 mg/kg.
On the same counts, the results for `CC1(C(=O)O)CN(CC2=Cc3c(F)cc(OCc4cc(-c5ccccc5)c(C(F)(F)F)s4)cc3OC2)C1` [Ex 81] are 4.6 nM and 0.25 mg/kg.
On the same counts, the results for `O=C(O)C1=CCCN(CC2=Cc3c(F)cc(OCc4ccc(C(F)(F)F)cc4C(F)(F)F)cc3OC2)C1` [Ex 85] are 11 nM and 0.19 mg/kg.
On the same counts, the results for `CC1(C(=O)O)CCN(CC2=Cc3c(F)cc(OCc4ccc(-n5cccc5)c(C(F)(F)F)c4)cc3OC2)C1` (stereo not shown) [Ex 89] are 6.1 nM and 0.16 mg/kg.
Consider `O=C(O)[C@H]1CCN(CC2=Cc3c(F)cc(OCc4ccc(-n5cccc5)c(C(F)(F)F)c4)cc3OC2)C1` [Ex 109], for which the EC50 at human S1P1 is 5.4 nM. Further, the 50% effective dose (ED50) in experiment [1] came to 0.26 mg/kg.
On the same counts, the results for `CC1(C(=O)O)CN(CC2=Cc3ccc(OCc4ccc(-n5cccc5)c(C(F)(F)F)c4)cc3OC2)C1` [Ex 116] are 8.5 nM and 0.1 mg/kg.
On the same counts, the results for `Cl.O=C(O)C1CN(CC2=Cc3ccc(C#CCCc4ccccc4)cc3OC2)C1` [Ex 132] are 22 nM and 0.16 mg/kg.
On the same counts, the results for `Cc1c(OCc2ccc(C(F)(F)F)cc2C(F)(F)F)ccc2c1OCC(CN1CCC(C(=O)O)C1)=C2.Cl` (stereo not shown) [Ex 137] are 9.4 nM and 0.11 mg/kg.
Consider `Cl.O=C(O)C1=CCCN(CC2=Cc3c(F)cc(OCc4ccc(OC(CF)CF)c(Cl)c4)cc3OC2)C1` [Ex 143], for which the ED50 in experiment [1] came to 0.32 mg/kg.
As for `C[C@H](Oc1ccc(COc2cc(F)c3c(c2)OCC(CN2CCC=C(C(=O)O)C2)=C3)cc1Cl)C(F)(F)F.Cl` [Ex 144], in experiment [1], the ED50 amounted to 0.16 mg/kg.
